Reference: patent US20250161273A1, “PHARMACEUTICAL COMPOSITION COMPRISING DIPHENYLDIAZOLE DERIVATIVES AND METHODS OF USE” (MODAG GMBH, priority 2022, published 2025)
Like-named read-outs stand apart in the source and are kept apart here.

Test: phase 1 first-in-human trial, single ascending dose (SAD) PK
Assay type: in vivo
Settings: for fold increase in AUC / fold increase in Cmax: SAD; for Tmax / AUC(0-t) / Cmax / half-life: human, plasma; for Cmax: read-out: Cmax (geometric mean); for half-life: read-out: T1/2 (geometric mean) (converted)
Experimental: Anle138b was studied in a single-centre, double-blind, randomised, placebo-controlled single ascending dose (SAD) and multiple ascending dose (MAD) study in healthy subjects. Eligible participants were randomly assigned (1:1 for sentinel subjects and 1:5 for main group) to placebo or anle138b (dose ranging from 50 mg to 300 mg per day), respectively. In addition, the effect of food on the pharmacokinetics (PK) of anle138b in healthy subjects was examined at doses of 150 mg per day (FES, food effect study). Participants were randomized to treatment sequence (fed→fasted) or (fasted→fed). Treatment for the SAD, MAD and FES arms of the study was administered orally in hard gelatin capsules containing either 10 mg or 30 mg of anle138b with excipient (i.e., lauroyl polyoxyl-32 glycerides) or excipient only. The primary endpoints were safety and tolerability, the secondary endpoint was pharmacokinetics. Data from all randomized individuals were evaluated. [Clinicaltrials.gov-identifier: NCT04208152. EudraCT-number: 2019-004218-33]
Study design: A single-centre, double-blind, randomised, placebo-controlled single ascending dose (SAD) and multiple ascending dose (MAD) study of anle138b in doses of up to 300 mg per day in healthy subjects. The effect of food (FES) on the PK of anle138b in healthy subjects was examined using doses of 150 mg. Participants were recruited from Quotient Sciences (the “CRO”, Nottingham, UK) volunteer database. Approvals from the ethical review board and from the Medicines and Healthcare products Regulatory Agency (UK) were obtained. This study was conducted in accordance with the protocol and with the following legislation: The updated version of the international Council for Harmonisation Good Clinical Practice (GCP) including the integrated Addendum E6, the Medicines for Human Use (Clinical Trials) Regulations including amendments No. 1928, 2984 and 941. In addition, the study was performed according to the ethical principles outlined in the World Medical Association Declaration of Helsinki and its amendments. The study data was monitored. An independent study monitor was appointed to verify that the study was conducted in accordance with current GCP, regulatory requirements, the protocol and that the data were authentic, accurate and complete.
In SAD, subjects received a single dose of anle138b or placebo after fasting from all food and drink (except water) for a minimum of 8 h prior to dosing. The dosing in the four SAD-cohorts were 50 mg, 100 mg, 200 mg and 300 mg of free anle138b equivalent, QD, cohorts A, B, C and D respectively. In the MAD part, participants received anle138b or placebo once daily (QD) for 7 days after fasting from all food and drink (except water) for a minimum of 8 h prior to dosing. The dosing in the three MAD-cohorts was 100 mg, 200 mg and 300 mg of free anle138b equivalent, cohorts AM, BM and CM, respectively. Post dosing mouth and hand checks were conducted to ensure the capsules were swallowed. In-study decisions were made by the safety advisory committee (SAC) comprising the principal investigator, the sponsor's medical monitor and a PK expert. For dose escalation to proceed, data needed to be available from a minimum of 6 subjects per cohort with completed per protocol safety and PK assessments up to 48 h after dosing to ensure at least 4 subjects had received active IMP. The decision to proceed to the next higher dose level was based on safety, tolerability and available PK data to 48 h post-administration. The following data were analyzed: Adverse events, vital signs, safety laboratory, ECG, physical examinations, plasma concentrations of anle138b with interim PK parameter estimations (Tmax, Cmax, AUC0-24, AUC0-tau, AUC0-last and T½, where applicable). Data were provided to the SAC in accordance with CRO standard operating procedure (SOP) on interim dose decision-making and dose escalation. […]

[1] = 1.5-fold increase in dose from 200 mg to 300 mg
[2] = 2-fold increase in dose from 50 mg to 100 mg
[3] = 2-fold increase in dose from 100 mg to 200 mg
[4] = po, 50 mg, healthy volunteers, fasted, single oral 50 mg
[5] = po, 100 mg, healthy volunteers, fasted, single oral 100 mg
[6] = po, 200 mg, healthy volunteers, fasted, single oral 200 mg
[7] = po, 300 mg, healthy volunteers, fasted, single oral 300 mg

## Brc1cccc(-c2cc(-c3ccc4c(c3)OCO4)n[nH]2)c1 [anle138b, 3-(1,3-benzodioxol-5-yl)-5-(3-bromophenyl)-1H-pyrazole]
[1]
  fold increase in AUC: ~1.5 fold
  fold increase in Cmax: ~1.5 fold
[2]
  fold increase in AUC: ~3.3 fold
  fold increase in Cmax: ~2.9 fold
[3]
  fold increase in AUC: ~3.0 fold
  fold increase in Cmax: ~2.9 fold
Healthy volunteers, overall
  practical terminal elimination half-time: ~12 h
oral, healthy volunteers, single dose 50-300 mg, post-administration, read-out: median Tmax, all SAD cohorts
  Tmax: 1 to 1.5 h
po, 50 mg, healthy volunteers, fasted, single oral 50 mg (Cohort A), read-out: Tmax (median)
  Tmax: 1 h
po, 50 mg, healthy volunteers, fasted, single oral 50 mg (Cohort A), read-out: Tmax (range)
  Tmax: 0.5 to 2 h
po, 50 mg, healthy volunteers, fasted, single oral 50 mg, read-out: AUC(0-24) (geometric mean)
  AUC(0-t): ~113 ng·h/mL
po, 50 mg, healthy volunteers, fasted, single oral 50 mg, read-out: AUC(0-last) (geometric mean)
  AUC(0-t): 109 ng·h/mL
[4]
  Cmax: ~54.3 ng/mL
  half-life: 3.9 h
po, 100 mg, healthy volunteers, fasted, single oral 100 mg (Cohort B), read-out: Tmax (median)
  Tmax: 1.5 h
po, 100 mg, healthy volunteers, fasted, single oral 100 mg (Cohort B), read-out: Tmax (range)
  Tmax: 0.5 to 2 h
po, 100 mg, healthy volunteers, fasted, single oral 100 mg, read-out: AUC(0-24) (geometric mean)
  AUC(0-t): > 300 ng·h/mL
po, 100 mg, healthy volunteers, fasted, single oral 100 mg, read-out: AUC(0-last) (geometric mean)
  AUC(0-t): 372 ng·h/mL
[5]
  Cmax: ~156 ng/mL
  half-life: 10.8 h
po, 200 mg, healthy volunteers, fasted, single oral 200 mg (Cohort C), read-out: Tmax (median)
  Tmax: 1.5 h
po, 200 mg, healthy volunteers, fasted, single oral 200 mg (Cohort C), read-out: Tmax (range)
  Tmax: 1 to 2 h
po, 200 mg, healthy volunteers, fasted, single oral 200 mg, read-out: AUC(0-24) (geometric mean)
  AUC(0-t): ~1090 ng·h/mL
po, 200 mg, healthy volunteers, fasted, single oral 200 mg, read-out: AUC(0-last) (geometric mean)
  AUC(0-t): 1130 ng·h/mL
[6]
  Cmax: ~458 ng/mL
  half-life: 12.8 h
po, 300 mg, healthy volunteers, fasted, single oral 300 mg (Cohort D), read-out: Tmax (median)
  Tmax: 1.5 h
po, 300 mg, healthy volunteers, fasted, single oral 300 mg (Cohort D), read-out: Tmax (range)
  Tmax: 1.5 to 2 h
po, 300 mg, healthy volunteers, fasted, single oral 300 mg, read-out: AUC(0-24) (geometric mean)
  AUC(0-t): ~1650 ng·h/mL
po, 300 mg, healthy volunteers, fasted, single oral 300 mg, read-out: AUC(0-last) (geometric mean)
  AUC(0-t): 1720 ng·h/mL
[7]
  Cmax: ~704 ng/mL
  half-life: 16.2 h
